Reference: publication PMC12363518, “Azobenzene-Modified Temperature-Responsive Short Elastin-like Peptides for Photo-Controlled Phase Transition” (ACS Synthetic Biology, 2025)
Numbered stars: 1 amine (or outer) side, 2 acyl side, 3 side chain; on linkers, the order of the positions; unused ones are H or OH. Bridge positions count the residues as written; N and C are the ends. Peptide text beside a SMILES is read from it. I, II: the chains in the order shown. X1 = O=C(c1ccc(N=Nc2ccc(C(=O)[*:2])cc2)cc1)[*:1]

Experiments:
[1] = Turbidity measurement (OD600) of temperature-dependent phase separation, Tt; format: physicochemical
Description: The ability of the ELP–azobenzene conjugates to self-assemble was investigated by using turbidity measurements. In addition, we evaluated whether the photoisomerization of the azobenzene moieties induced differences in the aggregation ability of these analogues. Each peptide analogue was dissolved in PBS at different concentrations according to its water solubility. To quantitatively evaluate the aggregation ability, the transition temperature (T t) of the peptides was calculated from the change in optical density at a wavelength of 600 nm (OD600) associated with the increasing temperature (Table and Figure ).
The temperature-dependent self-assembly property of synthesized peptides was evaluated by using a JASCO V-660 spectral photometer (JASCO Co.). Each peptide was dissolved in PBS buffer or phosphate buffer solutions at various concentrations. Three types of phosphate buffers with the same ionic strength (μ = 0.100) but different pH (pH 7.4, 2.1, and 11.5) were prepared: phosphate buffer (pH 7.4, 29.4 mM Na2HPO4, 11.7 mM NaH2PO4), phosphate buffer (pH 2.1, 10.0 mM NaH2PO4, 10.5 mM phosphoric acid), and phosphate buffer (pH 11.5, 9.58 mM Na3PO4, 14.2 mM Na2HPO4). Turbidity was measured at 600 nm with increasing or decreasing temperature at a rate of 0.5 °C/min from 5 °C. The measurements were performed for the dark-adapted solution and after successive irradiation with UV light, visible light, and UV light. Each assay was repeated three times with different peptide solutions that were prepared separately. The phase separation property was described by the phase transition temperature (T t), which is the temperature at which the turbidity of the solution reaches half its maximum value.

[2] = Optical / fluorescence microscopy of coacervates and Rhodamine B-loaded aggregates; format: physicochemical
Description: To investigate the morphological properties of the ELP–azobenzene conjugates, a PBS solution of Azb-2(K-F2) was observed by using optical microscopy at different temperatures under light-protected conditions. The Azb-2(K-F2) solution was almost homogeneous at 25 °C (Figure A). However, spherical coacervates of the peptide emerged at 35 °C and then rapidly matured into larger particles with diameters of several micrometers by increasing the temperature to 37 °C (Figure B,C). These particles stably exist under dark conditions (Figure D).
Azb-2(K-F2) was further studied to determine whether the chemical release from the peptide aggregates could be controlled by light irradiation. Azb-2(K-F2) and Rhodamine B (a red fluorescent dye) were heated in PBS to form coacervates, and a stable pellet of the aggregate was obtained by centrifugation. This pellet was composed of Azb-2(K-F2) coacervates containing rhodamine B with diameters of several micrometers, as shown in Figure . The structure of the obtained sample was observed over time by using optical and fluorescence microscopy under irradiation with monochromatic light at a wavelength of 365 nm (Figure ). Before light irradiation, the peptide aggregate containing Rhodamine B was observed as a red-colored amorphous structure with a size of approximately 600–700 μm. When irradiated with UV-A light, spherical particles (several micrometers in diameter) leaked from the surface of the aggregates and the red dye diffused accordingly. This dissociation process was considered to be the reverse of the stepwise phase separation in which ELP formed submicron-ordered aggregates and then matured to larger aggregates with diameters of several micrometers. […] In contrast, the peptide aggregate containing Rhodamine B was stable at 37 °C in the absence of UV-A light (Figure S12).
The morphology of the coacervates of the ELP–azobenzene conjugate Azb-2(K-F2) was observed by optical microscopy. The light field observation was performed using a Leica DM IL LED (Leica Microsystems CMS, Wetzlar, Germany) equipped with HI PLAN 40× (Leica Microsystems CMS), HC PLAN 10× (Leica Microsystems CMS), and a Leica EL6000 external light source (Leica Microsystems CMS). Azb-2(K-F2) was dissolved in PBS buffer at a concentration of 3 mg/mL. Sample imaging was performed at 25, 35, and 37 °C by using a Thermo Plate TP-CHSQM (Tokai Hit Co., Ltd., Shizuoka, Japan). […]
A time-course observation of Azb-2(K-F2) aggregates in the presence of a fluorescent dye was also performed. To the Azb-2(K-F2) solution (in phosphate buffer, pH 7.4, 3 mg/mL) was added Rhodamine B at a final concentration of 50 μM. The resulting solution was incubated at 37 °C for 4 h. Then, the solution was centrifuged for 20 s (6200 rpm) to obtain an aggregate of the peptide as a red pellet. The obtained peptide aggregate was washed with PBS buffer (37 °C, 50 μL, three times) and was used to make a prepared slide. Time-dependent observation of the prepared sample was carried out at 37 °C under irradiation with 365 nm monochromatic light.

CC(C)[C@H](NC(=O)CNC(=O)[C@@H]1CCCN1C(=O)[C@H](Cc1ccccc1)NC(=O)CNC(=O)[C@@H](NC(=O)CNC(=O)[C@@H]1CCCN1C(=O)[C@H](Cc1ccccc1)NC(=O)[C@H](CCCCN)NC(=O)c1ccc(N=Nc2ccc(C(=O)N[C@@H](CCCCN)C(=O)N[C@@H](Cc3ccccc3)C(=O)N3CCC[C@H]3C(=O)NCC(=O)N[C@H](C(=O)NCC(=O)N[C@@H](Cc3ccccc3)C(=O)N3CCC[C@H]3C(=O)NCC(=O)N[C@H](C(=O)NCC(=O)O)C(C)C)C(C)C)cc2)cc1)C(C)C)C(=O)NCC(=O)O [Azb-2(K-F2)] (I: KFPGVGFPGVG-OH / II: KFPGVGFPGVG-OH; linker I:N-II:N via X1)
Tt,UV (phase transition temperature) ([1]; after "UV" conditions 1 h, PBS pH 7.4, OD600, 0.5 °C/min, Tt at half-maximal turbidity, concentrations as in Table 2, n = 3): 35.08 ± 0.30 °C
Tt,UV–vis (phase transition temperature) ([1]; after "UV–vis" conditions 1 h, PBS pH 7.4, OD600, 0.5 °C/min, Tt at half-maximal turbidity, concentrations as in Table 2, n = 3): 32.55 ± 0.67 °C
Tt,UV–vis–UV (phase transition temperature) ([1]; after "UV–vis–UV" conditions 1 h, PBS pH 7.4, OD600, 0.5 °C/min, Tt at half-maximal turbidity, concentrations as in Table 2, n = 3): 35.94 ± 1.15 °C
Tt, UV in phosphate buffer (PB) ([1]; after UV irradiation, PB pH 7.4 (ionic strength 0.100), 3.00 mg/mL (1.27 mM), OD600): 31.42 ± 0.78 °C
Tt, dark in phosphate buffer (PB) ([1]; dark-adapted, PB pH 7.4 (ionic strength 0.100), Azb-2(K-F2) 3.00 mg/mL (1.27 mM), 2(D-F2)-Azb 1.50 mg/mL (0.66 mM), OD600): 27.57 ± 0.18 °C
Tt,dark (phase transition temperature) ([1]; dark-adapted, PBS pH 7.4, OD600, 0.5 °C/min from 5 °C, Tt at half-maximal turbidity, F2-Azb-F2 100 μM, F2-Azb-F2-NH2 50 μM, Azb-2(K-F2) 1.27 mM, 2(F2-D)-Azb 0.66 mM, n = 3 separately prepared solutions): 32.09 ± 0.14 °C
phase separation in acidic phosphate buffer ([1]; phosphate buffer pH 2.1, Azb-2(K-F2) 1.27 mM, 2(F2-D)-Azb 0.66 mM, turbidity OD600): did not show phase separation
phase separation in neutral phosphate buffer ([1]; phosphate buffer pH 7.4, Azb-2(K-F2) 1.27 mM, 2(F2-D)-Azb 0.66 mM, turbidity OD600): underwent thermoresponsive phase separation
phase separation in basic phosphate buffer ([1]; phosphate buffer pH 11.5, Azb-2(K-F2) 1.27 mM, 2(F2-D)-Azb 0.66 mM, turbidity OD600): did not show phase separation
aggregate containing Rhodamine B without UV-A light ([2]; 37 °C, absence of UV-A light (Figure S12)): stable
aggregate containing Rhodamine B under continued UV-A irradiation ([2]; optical and fluorescence microscopy, 37 °C, 365 nm monochromatic light, Rhodamine B 50 μM at loading): completely collapsed
coacervate particles after UV-A irradiation ([2]; optical microscopy, 3 mg/mL in PBS, 37 °C, UV-A 365 nm for 5 min): particles disappeared
coacervate particles after subsequent room light ([2]; optical microscopy, 3 mg/mL in PBS, 37 °C, room light 5 min after UV-A): spherical aggregates reappeared
temperature at which spherical coacervates emerged ([2]; optical microscopy, 3 mg/mL in PBS, light-protected): 35 °C
peak wavelength n–π*: 430 nm
